Data from patent publication US20050004016A1, “Method of obtaining peptides with tissue-specific activity and pharmaceutical compositions on their basis” (priority 2000, published 2005).
Blank lines part the entries; values can stand above or below the compound they belong to. Residues, ends and D or L forms follow the SMILES beside them.

Tests used:
[1] = system: brain subcortical structure explants; assay: Growth of brain subcortical structure explants (square index, organotypic culture); type: cell-based, chicken embryos; conditions: 100 ng/ml, control SI = 100%
Procedure: Experiments were conducted on 69 fragments of brain subcortical structures of 10-11-days' old chicken embryos. The nutrient medium for cultivation consisted of 35% Eagle's solution, 25% calf foetal serum, 35% Hanks' solution, 5% chicken embryonic extract. The medium was also added glucose (0.6%), insulin (0.5 unit/ml), penicillin (100 unit/ml), glutamine (2 mM). Fragments of the brain subcortical structures were placed in this medium and cultivated in Petri's dishes in a thermostat at 36.7° C. for 48 hours. The experimental medium was added Ala-Glu-Asp-Gly tetrapeptide and Epithalamin in the concentrations of 2, 10, 20, 50, 100, 200, 400 ng/ml. Square index (SI) considered the criterion of biological activity. It was counted as the ratio between the total explant square including the growth zone and the initial square of the subcortical structure fragment Significance of differences between the average values of SI was assessed by Student's t-criterion. ST values were expressed percent, the control SI value being taken for 100%.
The growth zone of the control explants of the brain, subcortical structures included short neurites, migrating glia and fibroblast-resembling cells.
Immediate influence of the substances upon the fragments of the brain subcortical structures was investigated in the following experimental series.

[2] = system: cerebral cortex explants; assay: Growth of cerebral cortex explants (square index, organotypic culture); type: cell-based, chicken embryos
Procedure: The experiments are conducted on 73 fragments of cerebral cortex explants of 10-11-days' chicken embryos. The nutrient medium for cultivation consisted of 35% Eagle's solution, 25% calf foetal serum, 35% Hanks' solution, 5% chicken embryonic extract. The medium was also added glucose (0.6%), insulin (0.5 unit/ml), penicillin (100 unit/ml), glutamine (2 mM). Fragments of the cerebral cortex were placed in this medium and cultivated in Petri's dishes in a thermostat at 36.7° C. for 48 hours. The experimental medium is was added Ala-Glu-Asp-Pro tetrapeptide and Cortexin in the concentrations of 2, 10, 20, 50, 100, 200, 400 ng/ml. Square index (SI) was considered the criterion of biological activity. It was counted as the ratio between the total explant square including the growth zone and the initial square of the cerebral cortex fragment and. Significance of differences between the average values of SI was assessed by Student's t-criterion. SI values were expressed per cent, the control SI value being taken for 100%.
The growth zone of the control cerebral cortex explants included short neurites, migrating glia and fibroblast cells.
Immediate influence of the substances upon the cerebral cortex fragments was investigated in the following experimental series.

[3] = system: liver explants; assay: Growth of liver explants (square index, organotypic culture); type: cell-based, chicken embryos; conditions: 20 ng/ml
Procedure: The experiments were carried out in 53 liver fragments of 10-11 days old chicken embryos. Nutrient medium for the explant cultivation consisted of 35% of Eagle's solution, 25% of foetal calf serum, 35% of Hank's solution and 5% of chicken embryonic extract. The mixture is added glucose (0.6%), insulin (0.5 unit/ml), penicillin (100 unit/m) and glutamine (2 mM). […] Lys-Glu-Asp-Ala tetrapeptide was added to the experimental medium in the concentrations of 2, 10, 20, 50, 100, 200 and 400 ng/mL Square index (SI) was taken for a biological activity criterion and calculated as a correlation of the total explant square including the growth zone to the initial square of a liver fragment. The SI values were expressed percent, the control SI value taken for 100%.

[4] = system: monolayer hepatocyte culture; assay: Intensity of protein synthesis ([3H]-leucin inclusion) in monolayer hepatocyte culture; type: cell-based, rats; conditions: 0.005 μg/ml, 4 hours
Procedure: Intensity of the protein synthesis was investigated in the hepatocyte culture of rats aged 4, 8 and 18 months.
To isolate hepatocytes, rat liver was perfused with calcium-free Hanks' solution added 0.5 mM of EDTA and then 0.05% collagenase solution in Medium 199. The cellular suspension was filtered out and centrifuged. The hepatocyte suspension in the concentration of 5×10^5 was introduced into Petri's dishes, their bottoms surfaced with collagen-covered glass. Applied Medium 199 contained no bovine serum but was added 0.2 mg/ml of albumen and 5 μg/ml of insulin. The dishes with glass-covered bottoms were placed in a thermostat at 37° C., aerated and added CO2. […]
Protein synthesis was assessed by [^3H]-leucin inclusion regarding the standard errors for a free marked leucin pull in the same culture. […] Radioactivity of the pull of free intracellular leucin and cellular proteins (in hyamine fraction) after adding the corresponding scintillators was measured on a radioactivity counter SL-30.
The intensity of protein synthesis was calculated by the formula Icorr=Ii×Pav/Pi(cpm), where
Icorr—inclusion of leucin regarding the standard errors of free leucin pull, Ii—measured radioactivity of the proteins for i-culture, Pav—mean radioactivity of proteins and pull for the cultures studied in this experiment, Pi—total radioactivity of proteins and pull of the same culture. […]

SMILES: C[C@H](N)C(=O)N[C@@H](CCC(=O)O)C(=O)N[C@@H](CC(=O)O)C(=O)NCC(=O)O [Ala-Glu-Asp-Gly tetrapeptide, alanyl-glutamyl-aspartyl-glycine] (H-AEDG-OH)
SI of the experimental explants higher than that of the control fragments [1]: 24%

SMILES: C[C@H](N)C(=O)N[C@@H](CCC(=O)O)C(=O)N[C@@H](CC(=O)O)C(=O)N1CCC[C@H]1C(=O)O [Ala-Glu-Asp-Pro tetrapeptide, L-alanyl-L-glutamyl-L-aspartyl-L-proline] (H-AEDP-OH)
SI of the experimental explants higher than that of the control cerebral cortex fragments ([2]; 20 ng/ml, control SI = 100%): 40±7%
concentration stimulating the fragments of cultivated cerebral cortex (threshold of effective concentrations) ([2]; tested 2-400 ng/ml): 20 ng/mL

level of protein synthesis in hepatocytes ([4]; hepatocytes of rats aged 4, 8 and 18 months, strongest effect in cells of older animals): raised the level of protein synthesis
SMILES: C[C@H](NC(=O)[C@H](CC(=O)O)NC(=O)[C@H](CCC(=O)O)NC(=O)[C@@H](N)CCCCN)C(=O)O [Lys-Glu-Asp-Ala tetrapeptide, lysyl-glutamyl-aspartyl-alanine] (H-KEDA-OH)
effect on liver explants by longer terms of cultivation ([3]; cultivation up to 7 days): analogous stimulating effect
increase in the explant SI as compared to the control value ([3]; third day of the cultivation, control SI = 100%): 24%
amplitude of synthesis oscillations ([4]; hepatocytes of older rats): increased considerably
